Assay results reported in patent publication US20140350097A1, “TREATMENT OF HYPOTENSION ASSOCIATED WITH HEMODIALYSIS” (priority 2013, published 2014).

How the values were obtained:
[1] = test system: Wistar rats; experiment: Endotoxin (LPS)-induced shock in Wistar rats; format: in vivo, rat
Source text: For example, in Wistar rats, shock induced by endotoxin such as LPS (lipopolysaccharide from Salmonella typhosa) is accompanied by severe hypotension, as well known in the art. […] In addition, the survival rate was increased by NOX-100.
Bacterial translocation across damaged intestinal epithelium into the circulation occurs in rats during endotoxin-induced shock, as evidenced by positive bacterial cultures grown from blood, mesenteric lymph nodes, spleen, or liver obtained after LPS challenge.
Moreover, in the rat shock model, liver injury occurs as a result of hypoperfusion and Kupffer cell activation with the release of cytokines by LPS.

[2] = test system: rat model of shock induced by hemorrhage; experiment: Hemorrhagic shock rat model; format: in vivo; conditions: rats, 0.1 mmol/kg/hour
Source text: Treatment of these rats with NOX-100 (0.1 mmol/kg/hour) reduced the blood volume needed to maintain the blood pressure during shock and improved mean arterial pressure after resuscitation.

[3] = test system: male Wistar rats; experiment: Preliminary acute single dose toxicity study in male Wistar rats; format: in vivo, rat; conditions: single I.V. 30-608 mg/kg or S.C. 250-1,000 mg/kg, 7-day observation
Method: NOX-100 has been evaluated in a number of toxicological studies, including acute (single-dose in rats and dogs; 4-day dosing in rats and dogs), subacute (14-day dosing in rats and dogs) studies, and in vitro mutagenicity testing.
In a preliminary acute single dose study, male Wistar rats were administered NOX-100 intravenously (I.V.) at doses of 30-608 mg/kg or subcutaneous (S.C.) doses of 250-1,000 mg/kg. Each dosing was followed by a 7-day observation period. […] Another group of male Wistar rats were administered NOX-100 with Fe^2+ as a single SC dose at 250-1,000 mg/kg. […] Without wishing to be bound by any theory, it is believed that this discoloration was due to the color of the compound at the high dose.

[4] = test system: albino rats; experiment: Single dose infusion toxicity in albino rats; format: in vivo; conditions: single dose 1000, 1450 or 2000 mg/kg infused over 2 or 8 hours
Method: Based on the preliminary I.V. and S.C. studies, doses of 1000, 1450 or 2000 mg/kg of NOX-100 administered over an 8-hour period were tested in albino rats. A total dose of 2000 mg/kg administered over a shorter period of 2 hours was then tested.

[5] = test system: beagle dogs; experiment: 1 or 4 day infusion toxicity in beagle dogs; format: in vivo, dog
[6] = Preliminary intravenous pharmacokinetics in mice; format: in vivo, mouse; conditions: bolus injection 30 mg/kg i.v.
Method: (§1) The pharmacokinetics of intravenously administered NOX-100 was evaluated in mice, rats and dogs. Preliminary pharmacokinetic studies were conducted using a bolus injection of 30 mg/kg. Post injection, the drug was rapidly eliminated in all three species in a bi-exponential manner with a beta-t½ of approximately 6, 30 and 40 minutes in the mouse, rat and dog, respectively. […] The volume of distribution was around 20-30% of body weight and was similar in the three species. This is likely due to the hydrophilic nature of the drug and may reflect the distribution of NOX-100 primarily in the extracellular space.

[7] = Preliminary intravenous pharmacokinetics in dogs; format: in vivo, dog; conditions: bolus injection 30 mg/kg i.v.
Method: as §1

[8] = test system: Crj:CD(SD)IGS rats (SPF); experiment: Four-week repeated dose intravenous toxicity study in rats with two-week recovery; format: in vivo, rat
Method: The objective of this study was to investigate the toxicity of NOX-100 when administered as a single intravenous injection once daily for four consecutive weeks to Sprague-Dawley (SPF) rats and to determine the reversibility of changes which were established as treatment related.
NOX-100 was administered intravenously as a daily single dose (“pulse”) (40 mL/kg) at doses of 100, 500, and 2000 mg/kg/day for four weeks in Crj:CD(SD)IGS rats (SPF). The Control group was treated with saline (n=60 rats per gender−balanced randomization across all groups.) Following termination of treatment, an additional group of rats in the Control and highest dose group were held for a period of two weeks in order determine if the potential treatment related changes were reversible.

[9] = test system: subjects with hypotensive episodes during hemodialysis; experiment: Human clinical dose escalation study in hemodialysis subjects with hypotensive episodes; format: in vivo
Source text: In that study, the drug was given to subjects who had at least 3 hypotensive episodes during hemodialysis in the prior month. Subjects received the drug during hemodialysis when systolic blood pressure (SBP) had fallen at least 15 mmHg. The following trends appeared between drug and placebo periods. […] The SBP over this time period averaged 4 mmHg higher for drug than for placebo with a standard deviation of 16 mmHg. […] As hypotension worsened, the patients developed several different symptoms that were not predictable for any given patient. Clinical interventions intended to relieve hypotension were also variable and were applied at inconsistent times from patient to patient. This was a result of long standing practices established by patient and nurse to avoid severe symptoms. For example, patients would sometimes request an intervention that they thought would be helpful and nurses would sometimes institute an intervention when they thought that a blood pressure trend might soon lead to symptoms. It was felt unethical to intervene in this process, since the aim was to avoid patient discomfort.

[10] = Pharmacokinetics after bolus administration in hemodialysis subjects; format: in vivo, human
Source text: FIG. 1 depicts the results of plasma Cmax of NOX-100 after bolus administration in hemodialysis subjects as a function of dose. See Example 4.
FIG. 2 depicts the results of Area Under the Curve (AUC) of NOX-100 after bolus administration in hemodialysis subjects as a function of dose. See Example 4.
FIG. 3 depicts a histogram of plasma clearance of NOX-100 during dialysis after bolus administration in hemodialysis subject as a function of dose. Legend (x-axis, left to right): 0.33, 1, 3, 9, 25 and 50, mg/kg NOX-100. See Example 4.

[11] = 24 hours after hemorrhagic shock

CN(C[C@H](O)[C@@H](O)[C@H](O)[C@H](O)CO)C(=S)S [NOX-100, N-methyl-D-glucamine dithiocarbamate]
survival rate ([1]; Wistar rats, LPS shock): increased
LPS shock hypotension ([1]; Wistar rats, dose 0.3 mmol/kg): gradually reversed towards normal blood pressure levels
plasma indices of liver injury (ornithine carbamoyltransferase, aspartate transaminase, fibrinogen) ([1]; rat shock model, 200 mg/kg/day): all significantly reduced
reduction of bacterial translocation ([1]; rats, endotoxin-induced shock, prior infusion 200 mg/kg/day): about 70%
blood volume needed to maintain the blood pressure during shock [2]: reduced
mean arterial pressure after resuscitation [2]: improved
elevation of serum ornithine carbamoyltransferase (indicator of hepatic injury) [2, 11]: prevented
inflammatory gene expression [2, 11]: prevented
transcription factor activation [2, 11]: prevented
mortality and overt signs of toxicity [3]: no mortality or overt signs of toxicity
mortality [4]: no mortality
pathological findings ([5]; 2000 mg/kg/day): thickening of the duodenal wall and tubular dilatation of the kidney with basophilia in the cortex and vacuolation in the areas of cortical tubules
body weight and food consumption ([5]; 500-2000 mg/kg/day, 8-hour infusion, 1 or 4 days): decreased
plasma concentrations on Day 4 compared to Day 1 ([5]; 2 hours from the start of infusion, males and females): apparent increases
doses at which signs of adverse effects were first observed ([5]; dogs): 500 to 2000 mg/kg/day
half-life ([6]; in vivo, iv, mouse, read-out: beta-t½): ~6 min
volume of distribution ([6]; mice): 20-30 % of body weight
clearance ([6]; mouse, in vivo, iv, mice, read-out: clearance rate): 26 mL/min/kg
clearance ([7]; dog, in vivo, iv, dogs, read-out: clearance rate): 4.1 ± 0.6 mL/min/kg
volume of distribution ([7]; dogs): 20-30 % of body weight
half-life ([7]; in vivo, iv, dog, read-out: beta-t½): ~40 min
food consumption or body weight gain versus Control ([8]; rat, in vivo): no significant differences
ophthalmological examinations ([8]; rat, in vivo): No changes
reversibility after a two week period of bladder mucosal hyperplasia, proximal tubule basophilia and renal papillary edema ([8]; rat, in vivo): could not be confirmed
reversibility of urinary bladder change ([8]; rat, in vivo): no clear-cut reversibility
blood sodium, chloride and albumin ([8]; rat, in vivo, 2000 mg/kg): increased
cholesterol level ([8]; rat, in vivo, 2000 mg/kg): increased
hemoglobin ([8]; rat, in vivo, 2000 mg/kg): decrease
no adverse effect level ([8]; rats, daily single i.v. dose, four weeks): 100 mg/kg
clinically significant toxicity ([9]; 7 dose escalations, 4 subjects per group): did not reveal any clinically significant toxicity at any dose
average SBP difference, drug higher than placebo ([9]; 30 to 120 minutes following drug administration, standard deviation 16 mmHg): 4 mmHg
heart rate, diastolic blood pressure, number of interventions for low blood pressure or number of symptoms, drug versus placebo periods ([9]; hemodialysis subjects): no apparent differences
systolic blood pressure (SBP), drug versus placebo ([9]; three highest doses, 30 to 120 minutes following drug administration): trend for SBP to be higher after drug than after placebo
plasma clearance during dialysis versus dose ([10]; 0.33-50 mg/kg, FIG. 3): decreased slightly with higher doses but the difference was not statistically significant
plasma Cmax versus dose ([10]; bolus administration, hemodialysis subjects, FIG. 1): proportional to the dose
Area Under the Curve (AUC) versus dose ([10]; bolus administration, hemodialysis subjects, FIG. 2): proportional to the dose
clearance ([10]; human, plasma, intravenous, averaged clearance from the 1, 9, and 50 mg/kg cohorts, read-out: plasma clearance during dialysis): ~3.3 mL/min/kg
